Measured values reported in ChEMBL document CHEMBL2331161, “Structure-guided design, synthesis and in vitro evaluation of a series of pyrazole-based fatty acid binding protein (FABP) 3 ligands” (Bioorg Med Chem Lett, 2013).

Experiments:
[1] = target: Fatty acid-binding protein, adipocyte (Homo sapiens, UniProt P15090)
[2] = target: T1, Fatty acid-binding protein, heart (Homo sapiens, UniProt P05413)
Description: Inhibition of human FABP3 by 8-anilino-1-naphthalenesulfonic acid based fluorescence displacement assay

[3] = target: T1, Fatty acid-binding protein, heart; assay: Binding affinity to human FABP3 by surface plasmon resonance assay

Sequence of Fatty acid-binding protein, adipocyte (P15090 whole entry): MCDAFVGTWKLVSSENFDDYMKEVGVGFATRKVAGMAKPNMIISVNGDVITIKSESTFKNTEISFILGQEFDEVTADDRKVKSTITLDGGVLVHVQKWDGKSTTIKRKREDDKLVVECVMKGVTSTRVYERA
T1 sequence (P05413 whole entry): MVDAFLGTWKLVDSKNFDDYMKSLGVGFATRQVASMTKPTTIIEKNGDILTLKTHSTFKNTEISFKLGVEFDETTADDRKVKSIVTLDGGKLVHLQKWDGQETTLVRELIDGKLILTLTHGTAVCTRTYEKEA

| SMILES | IC50 ([1]; read-out: IC50) [µM] | IC50 [2] [µM] | Kd [3] [µM] | IC50 [1] |
| --- | --- | --- | --- | --- |
| Cc1ccc(-c2cc(-c3ccccc3OCCCCC(=O)O)nn2-c2ccccc2)cc1 | 259 | > 10000 | – | – |
| O=C(O)CCCOc1ccccc1-c1cc(-c2ccccc2)n(C2CCCCC2)n1 | 23.5 | 5.26 | – | – |
| O=C(O)CCCOc1ccccc1-c1cc(-c2ccccc2)n(C2CCCCCC2)n1 | 15.5 | 6.47 | – | – |
| O=C(O)COc1ccccc1-c1cc(-c2ccc(Cl)cc2)n(-c2ccccc2)n1 | > 10000 | > 10000 | – | – |
| O=C(O)CCCCOc1ccccc1-c1cc(-c2ccc(Cl)cc2)n(-c2ccccc2)n1 | 74 | 243 | – | – |
| O=C(O)CCCCCCOc1ccccc1-c1cc(-c2ccc(Cl)cc2)n(-c2ccccc2)n1 | 31 | > 10000 | – | – |
| O=C(O)CCCCOc1ccccc1-c1cc(-c2ccc(Br)cc2)n(-c2ccccc2)n1 | 86 | 22.3 | – | – |
| O=C(O)CCCOc1ccccc1-c1cc(-c2ccccc2)n(-c2ccc(F)cc2)n1 | – | 1.14 | 5.26 | – |
| CC(C)c1ccc(-n2nc(-c3ccccc3OCCCC(=O)O)cc2-c2ccccc2)cc1 | 10.3 | – | – | – |
| COc1ccc(-n2nc(-c3ccccc3OCCCC(=O)O)cc2-c2ccccc2)cc1 | 13.6 | 1.65 | – | – |
| COc1ccccc1-n1nc(-c2ccccc2OCCCC(=O)O)cc1-c1ccccc1 | – | 505 | – | Not Active |
| O=C(O)CCCOc1ccccc1-c1cc(-c2ccccc2)n(C2CCCC2)n1 | 16.6 | 6.03 | – | – |

Other lines, results leading:

| IC50 ([1]; read-out: IC50) [µM] | IC50 [2] [µM] | Kd [3] [µM] | IC50 [1] | SMILES |
| --- | --- | --- | --- | --- |
| 0.987 | > 10000 | – | – | O=C(O)COc1cccc(-c2ccccc2-c2cc(-c3ccccc3)n(-c3ccccc3)n2)c1 |
| 6.13 | 21 | – | – | O=C(O)CCCOc1ccccc1-c1cc(-c2ccc(Cl)cc2)n(-c2ccccc2)n1 |
| 5.41 | 4730 | – | – | Cc1ccc(-c2cc(-c3ccccc3OCCCC(=O)O)nn2-c2ccccc2)cc1 |
| 9.51 | 224 | – | – | O=C(O)CCCOc1ccccc1-c1cc(-c2ccc(Br)cc2)n(-c2ccccc2)n1 |
| 3.02 | 2.01 | 16.3 | – | O=C(O)CCCOc1ccccc1-c1cc(-c2ccccc2)n(-c2ccccc2)n1 |
| 6.39 | > 10000 | – | – | O=C(O)CCCCOc1ccccc1-c1cc(-c2ccccc2)n(-c2ccccc2)n1 |
| 4.32 | 0.733 | 2.17 | – | O=C(O)CCCOc1ccccc1-c1cc(-c2ccccc2)n(-c2ccc(Cl)cc2)n1 |
| 4.27 | 1.16 | – | – | O=C(O)CCCOc1ccccc1-c1cc(-c2ccccc2)n(-c2ccccc2Cl)n1 |
| 2.5 | – | – | – | O=C(O)CCCOc1ccccc1-c1cc(-c2ccccc2)n(-c2cccc(Cl)c2)n1 |
